“Also recorded” adds a separate entry of the source.
Tests used:
[1] = test system: sera obtained from cancer patients; assay: ELISA B cell epitope screening of 15-mer peptides with cancer patient sera; assay type: binding, human; conditions: single 15-mer peptides of SP8 or SP9
Description: FIG. 7. Several novel epitopes were detected in BC patients by ELISA in SP8 and SP9, including 94, 108, 91, 88, 89, and 95 from pool 9.
B cell epitopes have been screened by ELISA or flow cytometry using 4D1, 4E6, 4E11, 6H5, 6E11, 5F11mAbs or G11D10 or P 1/P2e (single chain antibodies generated from 6H5 (FIGS. 5-6), or the sera obtained from cancer patients (FIGS. 7-8). Several anti-HERV-K monoclonal antibodies were able to recognize some of these peptides.

T cells in PBMCs = assay: IFN-γ release by ELISA from PBMC stimulated with peptides or protein; assay type: cell-based, human; conditions: stimulated PBMC, FIG. 21A
Description: FIG. 17. T cell stimulation by HERV-K peptides. Peptides (p73-76 and p18-135) or HERV-K SU fusion proteins were used to stimulate PBMC and evaluated in vitro for their ability to stimulate T cells in PBMCs from healthy subjects (ND1007083; left) and/or cancer patients (BC 243; right), based on interferon-γ(IFN-γ) release by ELISA. KLH peptide and GST protein were used as controls. Other negative controls included media only, DMSO, and PBS.
FIG. 18. T cell stimulation by HERV-K peptides. Peptides (p73-76: left; and p18-135: middle) or HERV-K SU fusion proteins (right) were used to stimulate PBMC and evaluated in vitro for their ability to stimulate T cells in PBMCs from healthy subjects and/or cancer patients (BC 243; middle), based on interferon-γ (IFN-γ) release by ELISA. OD values of interferon-γ (IFN-γ) release were compared between normal donors (ND447549, ND1001366, and ND1007083) and cancer patients (OC222, OC 210, OC212, and BC243). OC is ovarian cancer and BC is breast cancer
FIGS. 21A-C. T Cell Stimulation. 9 mer Peptides (HERVK-3, HERVK-4, HERVK-11, and HERVK-18; see Table 1), p73-76 and p18-135 (Table 1 178 and 179), or HERV-K SU fusion proteins were used to stimulate PBMC and evaluated in vitro for their ability to stimulate T cells in PBMCs from healthy subjects and/or cancer patients, based on IFN-γ and Granzyme B release by ELISA. (FIG. 21A) OD values of IFN-γ release were compared in a normal donor (ND291812). (FIG. 21B) OD values of IFN-γ release were compared between a normal donor (ND291817) and an ovarian cancer patient (OC153). (FIG. 21C) OD values of Granzyme B release were compared between a normal donor (ND291817) and an ovarian cancer patient (OC153). Each dot represents an individual clone. Negative controls measured release of effector molecules from cancer cells after treatment with supernatants obtained from PBMCs without stimulation with HERV-K peptides or protein; positive controls were stimulated with PMA/ONO.
Cancer patients were enrolled to evaluate HERV-K as a tumor associated antigen target. Patients provided written informed consent as part of an approved protocol (LAB04-0083) at MD Anderson Cancer Center prior to commencing the studies. Normal healthy donor control blood samples were obtained from Gulf Coast Regional Blood Center, Houston Tex. 40 mL of peripheral blood was obtained from each patient, and peripheral blood mononuclear cells (PBMCs) were isolated by density gradient centrifugation using Histopaque-1077 (Sigma-Aldrich; USA). HLA-A*02 expression in PBMCs obtained from cancer patients and healthy subjects was determined by flow cytometry with PE Mouse anti-human HLA-A2 mAb BB7.2 (BD Pharmingen; San Diego, Calif., USA). Mouse IgG2b was used as an isotype control. PBMCs (5×10^5 cells/well) from either healthy subjects or cancer patients were incubated with Peptide #18-135 ([…]; SEQ ID NO: 178), Peptide #73-76 ([…]; SEQ ID NO: 179) or KLH as control peptide) or proteins (HERV-K env SU protein or GST protein as control) at concentrations of 40 μg/mL in 96-well U-bottom microplates (BD; Franklin Lakes, N.J., USA) in 100 μL of T-cell medium (TCM), consisting of RPMI 1640 (Mediatech; Manassas, Va., USA), 10% human AB serum (Valley Biomedical, Winchester, USA), […] 2-mercaptoethanol, 100 IU/mL interleukin-2 (IL-2), and 0.1 mM MEM nonessential amino acid solution (Invitrogen; Grand Island, N.Y., USA). Half of the TCM was removed and replaced with fresh TCM containing peptides (20 μg/mL) on day 7. After 14 days of culture, the supernatants from cell culture media (PBMC pulsed with peptides or proteins) were harvested and tested for their ability to produce IFN-gamma or IL-2, and granzyme B release was also determined by enzyme-linked immunosorbent assay (ELISA) assay. In order to detect the secreted cytokine in this assay, high-binding plates were coated with 5 μg/ml anti-IFN-γ (Mabtech, Stockholm, Sweden) diluted in PBS buffer at 4° C. overnight. […]

IVS cells = assay: IFN-γ ELISPOT with IVS cells (DC pulsed once with HERV-K protein) against MAPs, 9-mer pools or single peptides; assay type: cell-based, human; conditions: donor 449731, IVS cells, FIG. 15C
Description: FIGS. 15A-C. ELISPOT was employed to determine the production of IFN-γ in twelve 15-mer small pools. (FIG. 15A) Numbers of spots detected in multiple pools are shown for a breast cancer patient diagnosed with IDC (Acc 30) or a patient diagnosed with teratoma (Acc 32). (FIG. 15B) Numbers of spots detected in multiple pools are shown for a patient diagnosed with left breast minute foci of sugg papillary lesion (967092) or IDC (Acc 31). SP 1-12 represents small peptide pools #1-12. Pool 0 contains no peptides (as control). (FIG. 15C) T cells obtained from PBMC stimulated once with HERV-K-specific pulsed homologous B cells were reactive with individual MAPs, pools of 9-mer peptides, or single 9-mer peptides. NP: no peptide control.
IVS were obtained from two donor pairs stimulated with DC pulsed once with HERV-K protein. After 7 days (1-week stimulation), IVS cells were used for ELISPOT with 15-mer peptides (FIGS. 15A-B) or MAPs including MAP73, MAP75-76, MAP82-93, MAP 92-93, and MAP95-96 or 9 mer peptide pools (#1 to 5, #5 to 10, #1 to 10, #12 to 17, #18 to 22) or single peptides (#3, #18, and #4.11; FIG. 15C). Candidate epitopes (#4 and #11) were further identified using IVS generated from DC obtained from cancer patients stimulated with HERV-K antigen in this study.

[2] = test system: TIL obtained from melanoma patient; assay: IFN-γ ELISPOT with TIL from melanoma patient; assay type: cell-based, human
[3] = test system: T cells from HLA A2+ normal donor; assay: IFN-γ ELISPOT, T cells stimulated by 9-mer peptide pool-pulsed homologous B cells; assay type: cell-based, human; conditions: T cell stimulated 3 times with peptide pool #12 to 22
Description: FIGS. 12A-B. Identification of HLA-A2 T-cell specific peptides using anti-human IFN-γ ELISPOT with T cells from one HLA A2^+ normal donor. (FIG. 12A) T cells, stimulated by peptide pool-pulsed homologous B cells three (3rd T cells) or four (4th T cells) times were reactive with two pools from a HERV-K HLA A2^+9-mer peptide library (pool #1-11 and pool #12-22). NP is no peptide control. (FIG. 12B) Photographs of actual plates for FIG. 12A.
FIGS. 13A-B. Identification of HLA-A2 T cell specific epitopes using anti-human IFN-γ ELISPOT. T cells obtained from PBMC stimulated by peptide pool-pulsed homologous B cells three (3rd T cells) or four (4th T cells) times, were reactive with individual peptides. (FIG. 13A) Image of ELISPOT. (FIG. 13B) The code of peptides evaluated in ELISPOT assays.
FIGS. 14A-C. Summary of number of ELISPOTs from each individual peptide. Numbers of spots detected (pool 1-11, pool 12-22, and pool 23-33) in ELISPOTS with a single peptide are shown. NP contains no peptide (as control). (FIG. 14A) Summary of number of ELISPOTs from each individual peptide including #1, #2, #3, #5, #6, #7, #8, and #9, and peptide pool #1 to #11. (FIG. 14B) Summary of number of ELISPOTs from each individual peptide including #12, #13, #14, #15, #17, #18, #19, #20, #22 and peptide pool #12 to #22. (FIG. 14C) Summary of number of ELISPOTs from each individual peptide including #23, #24, #25, #26, #27, #28, #30, #31, #32, #33, and peptide pool #23 to #33. 4th T cells indicated the T cells had been stimulated with peptide pool 4 times and 3rd T cells indicated the T cells had been stimulated with peptide pool 3 times.
The inventor used epitope mapping to identify responses to HERV-K peptides in breast cancer patients. They chemically synthesized a HERV-K env nine amino acid (9mer) peptide library (33 HLA A2 restricted peptides) and overlapping 15mer peptide library (144 peptides). Preliminary research has identified two pools from the HERV-K env 9mer peptide library that contain potential CD8+ epitopes, using interferon gamma (IFN-γ) enzyme-linked immunosorbent spot (ELISPOT) assay with T cells from one HLA A2^+ normal donor which was stimulated with the 9mer peptide pool-pulsed homologous dendritic cells (DCs).
HLA-2+ patients were identified by flow cytometry using anti-A2 antibody. Activated B cells were cultured from PBMCs stimulated with irradiated 3T3-CD40L-expressing fibroblasts. Normal donor CD8+ T-cell lines were obtained from PBMCs stimulated with autologous activated B cells pulsed with peptide pools (peptides are in 3 pools: #1-11, #12-22, and #23-33); the stimulation was repeated for 3-4 cycles. HERV-K specific T cells generated from normal donor lines were tested for peptide reactivity using IFN-γ ELISPOT assays (FIGS. 12A-B).

AVIMGLIAVTATAAV [15-mer 91]
B epitope found by ELISA using patient sera [1]: epitopes were found

GVALHSSVQSVNFVN [15-mer 95]
B epitope found by ELISA using patient sera [1]: epitopes were found

LILVCLFCL [HERVK-4]
IFN-γ release (OD values) (T cells in PBMCs): Higher IFN-γ release
HERV-K specific T cell epitope (IFN-γ ELISPOT) (IVS cells): HERV-K specific T cell epitopes

SQTITCENCRLLSCI [15-mer 73]
recognition by TILs (IFN-γ ELISPOT) ([2]; TIL from a melanoma patient): the single peptide in SP7 which was recognized by TILs
number of IFN-γ spots ([2]; TIL from melanoma patient specimens, FIG. 16A): large number of spots

LNRSKRFIFTLIAVI [15-mer 88]
B epitope found by ELISA using patient sera [1]: epitopes were found

LMSLEHRFQLQCDWN [15-mer 108]
B epitope found by ELISA using patient sera [1]: epitopes were found; also recorded: the only active epitope in each patient's serum

ILVCLFCLL [HERVK-11]
IFN-γ release (OD values) (T cells in PBMCs): Higher IFN-γ release
HERV-K specific T cell epitope (IFN-γ ELISPOT) (IVS cells): HERV-K specific T cell epitopes

AAVAGVALHSSVQSV [15-mer 94]
B epitope found by ELISA using patient sera [1]: epitopes were found

KRFIFTLIAVIMGLI [15-mer 89]
B epitope found by ELISA using patient sera [1]: epitopes were found

TLIAVIMGL [HERVK-15]
IFN-γ ELISPOT spots with individual peptide [3]: numerous spots

Source: patent US20150250864A1, “ANTI-CANCER VACCINES” (Board of Regents, The University of Texas System, priority 2012, published 2015)
